We go through one molecule from US20130280764A1, “METHOD OF IMPROVING THE ACTIVITY OF CELLULASE ENZYME MIXTURES IN THE SACCHARIFICATION (LIGNO)CELLULOSIC MATERIAL” (DYADIC INTERNATIONAL (USA) LTD., priority 2012, published 2013).

Holding throughout (assay type): biochemical, Myceliophthora thermophila C1
Assay [1] relates to M. thermophila C1 BGl1. Briefly: Cellobiase activity of Bgl1 with or without gluconolactone. The note with it: gluconolactone above 0.1 g/L; pH 4.5, 5.0 and 6.0. Here is the method:
(§1) Purified Bgl1, Eg5, Eg6, CBH1, CBH2, and CBH4 from M. thermophila C1 were used to determine the level of inhibition by gluconolactone. For Bgl1, cellobiase activity was assayed by the following procedure: 0.4 ml of 2.5 mM cellobiose solution (in 0.1 M Na-acetate with pH 4.5, 5.0 or 6.0) was incubated during 5 min at 50° C. (with or without gluconolactone), then 0.1 ml of the enzyme (bgl1 from C1) solution was added (the dilution of the enzyme chosen at such a concentration in order to achieve 10% of cellobiose hydrolysis in 15 min, which is 0.072 g/L of glucose released). After 5, 10 and 15 min of incubation at […], 0.1 ml of the reaction mixture was sampled and glucose concentration was determined immediately by the glucose oxidase-peroxidase assay (Megazymes). Gluconolactone (Sigma-Aldrich) was added in the reaction mixture at concentrations between 0-10 g/L (0, 0.04, 0.08, 0.1, 0.2, 0.3, 0.6, 0.8, 1, 2, 4, 5, 8 and 10 g/L).
(§2) For C1 cellulases Eg2, Eg5, Eg6, CBH1, CBH2, CBH4, the effect of 10 g/L gluconolactone on the saccharification of microcrystalline cellulose (“MCC”) at 50° C. was determined after 72 hrs.

Assay [2] deals with CBH4. The experiment in a line: Saccharification of microcrystalline cellulose by purified cellulase with gluconolactone. The following applies: 10 g/L gluconolactone; MCC, 50° C., 72 hrs. Here is the method:
as §1, §2

Assay [3] deals with EG2. The description is as above. The following applies: 10 g/L gluconolactone; MCC, 50° C., 72 hrs. As to the method: as §1, §2
In assay [4] the test system is CBH1. The description is as above. The following applies: 10 g/L gluconolactone; MCC, 50° C., 72 hrs. As to the method:
as §1, §2

Assay [5] has as its system EG5. Described as above. The note with it: 10 g/L gluconolactone; MCC, 50° C., 72 hrs. As to the method: as §1, §2
In assay [6] the test system is CBH2. The assay is described as above. The following applies: 10 g/L gluconolactone; MCC, 50° C., 72 hrs. As to the method: as §1, §2

`O=C1O[C@H](CO)[C@@H](O)[C@H](O)[C@H]1O` [gluconolactone]: the “inhibition of cellobiase activity” value in assay [1] is “completely inhibited”. Besides, the Remaining activity in assay [2] is reported as 33%; in assay [3] it was 28%; in assay [4] it was 14%; in assay [5] it was 65%; in assay [6], 13%.
